Assay results: US9108944B2, “Androgen receptor modulators and uses thereof” (ARAGON PHARMACEUTICALS, INC., priority 2010, dated 2015)

How the values were obtained:
AR-VP16 [1] = molecular target: T1, AR-VP16 (Homo sapiens, UniProt P10275); experiment: AR-VP16 DNA Binding Assay, antagonist mode (HepG2 cells, 0.1 nM R1881); type: cell-based
T1 sequence (P10275 560-920 limits assumed): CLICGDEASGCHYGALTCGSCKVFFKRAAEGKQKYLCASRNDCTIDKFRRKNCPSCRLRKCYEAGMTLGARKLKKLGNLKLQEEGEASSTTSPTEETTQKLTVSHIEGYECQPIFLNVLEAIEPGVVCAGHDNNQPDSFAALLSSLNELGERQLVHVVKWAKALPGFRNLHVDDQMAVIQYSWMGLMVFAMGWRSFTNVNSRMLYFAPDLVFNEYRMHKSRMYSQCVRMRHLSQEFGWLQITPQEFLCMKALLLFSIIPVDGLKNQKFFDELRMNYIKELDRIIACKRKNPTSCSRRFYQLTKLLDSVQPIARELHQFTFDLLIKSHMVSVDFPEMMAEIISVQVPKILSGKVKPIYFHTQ
In short: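 Transfected HepG2 cells expressing AR-VP16 received serially diluted compound in charcoal-stripped-serum RPMI the day after transfection, with 0.1 nM R1881 (final) added only for antagonist testing. After 48 h, cells were lysed for measurement.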

AR-VP16 [2] = molecular target: T1, AR-VP16; experiment: AR-VP16 DNA Binding Assay, agonist mode (HepG2 cells); type: cell-based; conditions: Emax >20x DMSO control = agonist

CN1CCN(CCNC(=O)c2cc(N3C(=S)N(c4cnc(C#N)c(C(F)(F)F)c4)C(=O)C34CCC4)ccc2F)CC1 [Compound 254, 5-(7-(6-Cyano-5-(trifluoromethyl)pyridin-3-yl)-8-oxo-6-thioxo-5,7-diazaspiro[3.4]octan-5-yl)-2-fluoro-N-(2-(4-methylpiperazin-1-yl)ethyl)benzamide] was tested, and the IC50 (AR-VP16 [1]) was > 1000 nM and the “ARVP16 DNA Binding Assay (Agonist mode): Agonist?” value (“ARVP16 DNA Binding Assay” for short) (AR-VP16 [2]) was “No (Agonist defined as a compound whose Emax in the ARVP16 DNA Binding Assay (Agonist mode) is >20x DMSO control)”.
In the case of N#Cc1ncc(N2C(=O)C3(CCC3)N(c3ccc(C(=O)Nc4ccccc4)c(F)c3)C2=S)cc1C(F)(F)F [Compound 255, 4-(7-(6-Cyano-5-(trifluoromethyl)pyridin-3-yl)-8-oxo-6-thioxo-5,7-diazaspiro[3.4]octan-5-yl)-2-fluoro-N-phenylbenzamide], the IC50 (AR-VP16 [1]) is reported as < 1000 nM and the “ARVP16 DNA Binding Assay” value (AR-VP16 [2]) is reported as “No (Agonist defined as a compound whose Emax in the ARVP16 DNA Binding Assay (Agonist mode) is >20x DMSO control)”.
With Cn1ncc(Br)c1CCNC(=O)c1ccc(N2C(=S)N(c3cnc(C#N)c(C(F)(F)F)c3)C(=O)C23CCC3)cc1F [Compound 256, N-(2-(4-Bromo-1-methyl-1H-pyrazol-5-yl)ethyl)-4-(7-(6-cyano-5-(trifluoromethyl)pyridin-3-yl)-8-oxo-6-thioxo-5,7-diazaspiro[3.4]octan-5-yl)-2-fluorobenzamide] the IC50 (AR-VP16 [1]) was < 1000 nM and the “ARVP16 DNA Binding Assay” value (AR-VP16 [2]) was “No (Agonist defined as a compound whose Emax in the ARVP16 DNA Binding Assay (Agonist mode) is >20x DMSO control)”.
N#Cc1ncc(N2C(=O)C3(CCC3)N(c3ccc(C(=O)NCCc4ccccc4)c(F)c3)C2=S)cc1C(F)(F)F [Compound 257, 4-(7-(6-Cyano-5-(trifluoromethyl)pyridin-3-yl)-8-oxo-6-thioxo-5,7-diazaspiro[3.4]octan-5-yl)-2-fluoro-N-phenethylbenzamide] was tested, and the IC50 (AR-VP16 [1]) was < 1000 nM and the “ARVP16 DNA Binding Assay” value (AR-VP16 [2]) was “No (Agonist defined as a compound whose Emax in the ARVP16 DNA Binding Assay (Agonist mode) is >20x DMSO control)”.
In the case of N#Cc1ncc(N2C(=O)C3(CCC3)N(c3ccc(C(=O)NCc4ccncc4)c(F)c3)C2=S)cc1C(F)(F)F [Compound 259, 4-(7-(6-Cyano-5-(trifluoromethyl)pyridin-3-yl)-8-oxo-6-thioxo-5,7-diazaspiro[3.4]octan-5-yl)-2-fluoro-N-(pyridin-4-ylmethyl)benzamide], the IC50 (AR-VP16 [1]) is reported as < 1000 nM and the “ARVP16 DNA Binding Assay” value (AR-VP16 [2]) is reported as “No (Agonist defined as a compound whose Emax in the ARVP16 DNA Binding Assay (Agonist mode) is >20x DMSO control)”.
In the case of N#Cc1ncc(N2C(=O)C3(CCC3)N(c3ccc(C(=O)Nc4ccccn4)c(F)c3)C2=S)cc1C(F)(F)F [Compound 261, 4-(7-(6-Cyano-5-(trifluoromethyl)pyridin-3-yl)-8-oxo-6-thioxo-5,7-diazaspiro[3.4]octan-5-yl)-2-fluoro-N-(pyridin-2-yl)benzamide], the IC50 (AR-VP16 [1]) is reported as < 1000 nM and the “ARVP16 DNA Binding Assay” value (AR-VP16 [2]) is reported as “No (Agonist defined as a compound whose Emax in the ARVP16 DNA Binding Assay (Agonist mode) is >20x DMSO control)”.
For N#Cc1ncc(N2C(=O)C3(CCC3)N(c3ccc(C(=O)Nc4cccnc4)c(F)c3)C2=S)cc1C(F)(F)F [Compound 262, 4-(7-(6-Cyano-5-(trifluoromethyl)pyridin-3-yl)-8-oxo-6-thioxo-5,7-diazaspiro[3.4]octan-5-yl)-2-fluoro-N-(pyridin-3-yl)benzamide], the IC50 (AR-VP16 [1]) was < 1000 nM and the “ARVP16 DNA Binding Assay” value (AR-VP16 [2]) was “No (Agonist defined as a compound whose Emax in the ARVP16 DNA Binding Assay (Agonist mode) is >20x DMSO control)”.
With N#Cc1ncc(N2C(=O)C3(CCC3)N(c3ccc(C(=O)Nc4ccncc4)c(F)c3)C2=S)cc1C(F)(F)F [Compound 263, 4-(7-(6-Cyano-5-(trifluoromethyl)pyridin-3-yl)-8-oxo-6-thioxo-5,7-diazaspiro[3.4]octan-5-yl)-2-fluoro-N-(pyridin-4-yl)benzamide] the IC50 (AR-VP16 [1]) was < 1000 nM and the “ARVP16 DNA Binding Assay” value (AR-VP16 [2]) was “Yes (Agonist defined as a compound whose Emax in the ARVP16 DNA Binding Assay (Agonist mode) is >20x DMSO control)”.
In the case of N#Cc1ncc(N2C(=O)C3(CCC3)N(c3ccc(C(=O)NCc4ccco4)c(F)c3)C2=S)cc1C(F)(F)F [Compound 266, 4-(7-(6-Cyano-5-(trifluoromethyl)pyridin-3-yl)-8-oxo-6-thioxo-5,7-diazaspiro[3.4]octan-5-yl)-2-fluoro-N-(furan-2-ylmethyl)benzamide], the IC50 (AR-VP16 [1]) is reported as < 1000 nM and the “ARVP16 DNA Binding Assay” value (AR-VP16 [2]) is reported as “No (Agonist defined as a compound whose Emax in the ARVP16 DNA Binding Assay (Agonist mode) is >20x DMSO control)”.
With CN1CCN(CCCNC(=O)c2ccc(N3C(=S)N(c4cnc(C#N)c(C(F)(F)F)c4)C(=O)C34CCC4)cc2F)CC1 [Compound 269, 4-(7-(6-Cyano-5-(trifluoromethyl)pyridin-3-yl)-8-oxo-6-thioxo-5,7-diazaspiro[3.4]octan-5-yl)-2-fluoro-N-(3-(4-methylpiperazin-1-yl)propyl)benzamide] the IC50 (AR-VP16 [1]) was < 1000 nM and the “ARVP16 DNA Binding Assay” value (AR-VP16 [2]) was “No (Agonist defined as a compound whose Emax in the ARVP16 DNA Binding Assay (Agonist mode) is >20x DMSO control)”.
In the case of N#Cc1ncc(N2C(=O)C3(CCC3)N(c3ccc(C(=O)N4CCCC4)c(F)c3)C2=S)cc1C(F)(F)F [Compound 270, 5-(5-(3-Fluoro-4-(pyrrolidine-1-carbonyl)phenyl)-8-oxo-6-thioxo-5,7-diazaspiro[3.4]octan-7-yl)-3-(trifluoromethyl)picolinonitrile], the IC50 (AR-VP16 [1]) is reported as > 1000 nM and the “ARVP16 DNA Binding Assay” value (AR-VP16 [2]) is reported as “No (Agonist defined as a compound whose Emax in the ARVP16 DNA Binding Assay (Agonist mode) is >20x DMSO control)”.
In the case of N#Cc1ncc(N2C(=O)C3(CCC3)N(c3ccc(C(=O)N4CCOCC4)c(F)c3)C2=S)cc1C(F)(F)F [Compound 271, 5-(5-(3-Fluoro-4-(morpholine-4-carbonyl)phenyl)-8-oxo-6-thioxo-5,7-diazaspiro[3.4]octan-7-yl)-3-(trifluoromethyl)picolinonitrile], the IC50 (AR-VP16 [1]) is reported as > 1000 nM and the “ARVP16 DNA Binding Assay” value (AR-VP16 [2]) is reported as “No (Agonist defined as a compound whose Emax in the ARVP16 DNA Binding Assay (Agonist mode) is >20x DMSO control)”.
In the case of Cc1cc(N2C(=O)C3(CCC3)N(c3ccc(C(=O)Nc4ccccc4)c(F)c3)C2=S)cnc1C#N [Compound 272, 4-(7-(6-Cyano-5-methylpyridin-3-yl)-8-oxo-6-thioxo-5,7-diazaspiro[3.4]octan-5-yl)-2-fluoro-N-phenylbenzamide], the IC50 (AR-VP16 [1]) is reported as < 1000 nM and the “ARVP16 DNA Binding Assay” value (AR-VP16 [2]) is reported as “No (Agonist defined as a compound whose Emax in the ARVP16 DNA Binding Assay (Agonist mode) is >20x DMSO control)”.
Cc1cc(N2C(=O)C3(CCC3)N(c3ccc(C(=O)NCc4cccs4)c(F)c3)C2=S)cnc1C#N [Compound 274, 4-(7-(6-Cyano-5-methylpyridin-3-yl)-8-oxo-6-thioxo-5,7-diazaspiro[3.4]octan-5-yl)-2-fluoro-N-(thiophen-2-ylmethyl)benzamide] was tested, and the IC50 (AR-VP16 [1]) was < 1000 nM and the “ARVP16 DNA Binding Assay” value (AR-VP16 [2]) was “No (Agonist defined as a compound whose Emax in the ARVP16 DNA Binding Assay (Agonist mode) is >20x DMSO control)”.
With Cc1cc(N2C(=O)C3(CCC3)N(c3ccc(C(=O)NCCCN4CCCC4)c(F)c3)C2=S)cnc1C#N [Compound 275, 4-(7-(6-Cyano-5-methylpyridin-3-yl)-8-oxo-6-thioxo-5,7-diazaspiro[3.4]octan-5-yl)-2-fluoro-N-(3-(pyrrolidin-1-yl)propyl)benzamide] the IC50 (AR-VP16 [1]) was > 1000 nM and the “ARVP16 DNA Binding Assay” value (AR-VP16 [2]) was “No (Agonist defined as a compound whose Emax in the ARVP16 DNA Binding Assay (Agonist mode) is >20x DMSO control)”.
